Patent US20090036448A1, “PYRIMIDINE DERIVATIVES AND METHODS OF TREATMENT RELATED TO THE USE THEREOF” (TAISHO PHARMECUTICAL CO., LTD., priority 2004, published 2009)

What follows are compounds tested against MCH receptor (Homo sapiens, UniProt Q99705) (assay: Receptor binding assay with Radiolabelled MCH Ligand). Conditions: class by percent of control at 10^-7 M or IC50.
Sequence of MCH receptor (Q99705 whole entry): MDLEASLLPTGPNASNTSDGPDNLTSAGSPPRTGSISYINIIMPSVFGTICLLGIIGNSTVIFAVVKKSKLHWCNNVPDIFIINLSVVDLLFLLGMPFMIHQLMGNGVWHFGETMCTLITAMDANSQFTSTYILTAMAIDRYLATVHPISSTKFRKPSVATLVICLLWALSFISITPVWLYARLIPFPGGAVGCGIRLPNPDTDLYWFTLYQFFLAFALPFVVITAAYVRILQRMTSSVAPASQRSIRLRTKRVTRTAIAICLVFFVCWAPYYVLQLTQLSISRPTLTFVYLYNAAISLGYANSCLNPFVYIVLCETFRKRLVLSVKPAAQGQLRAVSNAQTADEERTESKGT
Design: expressed in transfected cells; host or cells: 293 cells (human kidney, ATCC), transient transfection; crude membranes
From the text: In addition to the methods described herein, another means for evaluating a test compound is by determining binding affinities to the MCH receptor. This type of assay generally requires a radiolabelled ligand to the MCH receptor. Absent the use of known ligands for the MCH receptor and radiolabels thereof, compounds of Formula (I) can be labelled with a radioisotope and used in an assay for evaluating the affinity of a test compound to the MCH receptor.
A radiolabelled MCH compound of Formula (I) can be used in a screening assay to identify/evaluate compounds. In general terms, a newly synthesized or identified compound (i.e., test compound) can be evaluated for its ability to reduce binding of the “radiolabelled compound of Formula (I)” to the MCH receptor. Accordingly, the ability to compete with the “radio-labelled compound of Formula (I)” or Radiolabelled MCH Ligand for the binding to the MCH receptor directly correlates to its binding affinity of the test compound to the MCH receptor.
293 cells (human kidney, ATCC), transiently transfected with 10 μg human MCH receptor and 60 μl Lipofectamine (per 15-cm dish), are grown in the dish for 24 hours (75% confluency) with a media change and removed with 10 mL/dish of Hepes-EDTA buffer (20 mM Hepes+10 mM EDTA, pH 7.4). The cells are then centrifuged in a Beckman Coulter centrifuge for 20 minutes, 17,000 rpm (JA-25.50 rotor). Subsequently, the pellet is resuspended in 20 mM Hepes+1 mM EDTA, pH 7.4 and homogenized with a 50-mL Dounce homogenizer and again centrifuged. After removing the supernatant, the pellets can be stored at −80° C., until used in binding assay. When used in the assay, membranes are thawed on ice for 20 minutes and then 10 mL of incubation buffer (20 mM Hepes, 1 mM MgCl2, 100 mM NaCl, pH 7.4) added. The membranes are then vortexed to resuspend the crude membrane pellet and homogenized with a Brinkmann PT-3100 Polytron homogenizer for 15 seconds at setting 6. The concentration of membrane protein is determined using the BRL Bradford protein assay.
For total binding, a total volume of 50 ul of appropriately diluted membranes (diluted in assay buffer containing 50 mM Tris HCl (pH 7.4), 1 mM MgCl2, and 1 mM EDTA; 5-50 ug protein) is added to 96-well polyproylene microtiter plates followed by addition of 100 μl of assay buffer and 50 μl of Radiolabelled MCH Ligand. For nonspecific binding, 50 μl of assay buffer is added instead of 100 μl and an additional 50 μl of 10 uM cold MCH is added before 50 μl of Radiolabelled MCH Ligand is added. Plates are then incubated at room temperature for 60-120 minutes. The binding reaction is terminated by filtering assay plates through a Microplate Devices GF/C Unifilter filtration plate with a Brandell 96-well plate harvester followed by washing with cold 50 mM Tris HCl, pH 7.4 containing 0.9% NaCl. Then, the bottom of the filtration plate are sealed, 50 ul of Optiphase Supermix is added to each well, the top of the plates are sealed, and plates are counted in a Trilux MicroBeta scintillation counter. For compound competition studies, instead of adding 100 μl of assay buffer, 100 μl of appropriately diluted test compound is added to appropriate wells followed by addition of 50 μl of Radiolabelled MCH Ligand.
The test compounds are initially assayed at 1 and 0.1 μM and then at a range of concentrations chosen such that the middle dose would cause about 50% inhibition of a Radiolabelled MCH Ligand binding (i.e., IC50). Specific binding in the absence of test compound (BO) is the difference of total binding (BT) minus non-specific binding (NSB) and similarly specific binding (in the presence of test compound) (B) is the difference of displacement binding (BD) minus non-specific binding (NSB). IC50 is determined from an inhibition response curve, logit-log plot of % B/BO vs. concentration of test compound.
Ki is calculated by the Cheng and Prustoff transformation: […]
With `Cc1nc(N[C@H]2CC[C@@H](NC(=O)c3cnn(-c4ccccc4)c3C(F)(F)F)CC2)cc(N(C)C)n1` [compound 238] the class was 3 (Class 3: The value of percent of control at 10^−7 M was more than 60% or the value of IC50 was more than 200 nM.).
For `Cc1nc(N[C@H]2CC[C@@H](NC(=O)COc3ccccc3[N+](=O)[O-])CC2)cc(N(C)C)n1` [compound 239], the class was 3 (Class 3: The value of percent of control at 10^−7 M was more than 60% or the value of IC50 was more than 200 nM.).
With `Cc1nc(N[C@H]2CC[C@@H](NC(=O)c3cnc4ccccc4n3)CC2)cc(N(C)C)n1` [compound 240] the class was 3 (Class 3: The value of percent of control at 10^−7 M was more than 60% or the value of IC50 was more than 200 nM.).
`Cc1nc(N[C@H]2CC[C@@H](NC(=O)c3cccc(C(F)(F)F)c3)CC2)cc(N(C)C)n1` [compound 241, N-(cis-4-{[6-(dimethylamino)-2-methylpyrimidin-4-yl]amino}cyclohexyl)-3-(trifluoromethyl)benzamide] was tested, and the class was 3 (Class 3: The value of percent of control at 10^−7 M was more than 60% or the value of IC50 was more than 200 nM.).
With `Cc1ccc(C(=O)N[C@H]2CC[C@@H](Nc3cc(N(C)C)nc(C)n3)CC2)cc1` [compound 242] the class was 3 (Class 3: The value of percent of control at 10^−7 M was more than 60% or the value of IC50 was more than 200 nM.).
With `Cc1nc(N[C@H]2CC[C@@H](NC(=O)c3cccs3)CC2)cc(N(C)C)n1` [compound 243] the class was 3 (Class 3: The value of percent of control at 10^−7 M was more than 60% or the value of IC50 was more than 200 nM.).
`Cc1nc(N[C@H]2CC[C@@H](NC(=O)COc3c(F)c(F)c(F)c(F)c3F)CC2)cc(N(C)C)n1` [compound 244] was tested, and the class was 3 (Class 3: The value of percent of control at 10^−7 M was more than 60% or the value of IC50 was more than 200 nM.).
`COc1ccc(CC(=O)N[C@H]2CC[C@@H](Nc3cc(N(C)C)nc(C)n3)CC2)cc1OC` [compound 245] was tested, and the class was 3 (Class 3: The value of percent of control at 10^−7 M was more than 60% or the value of IC50 was more than 200 nM.).
For `Cc1nc(N[C@H]2CC[C@@H](NC(=O)CSc3ccccc3)CC2)cc(N(C)C)n1` [compound 246], the class was 3 (Class 3: The value of percent of control at 10^−7 M was more than 60% or the value of IC50 was more than 200 nM.).
For `Cc1nc(N[C@H]2CC[C@@H](NC(=O)c3cccc4c3-c3ccccc3C4=O)CC2)cc(N(C)C)n1` [compound 247], the class was 3 (Class 3: The value of percent of control at 10^−7 M was more than 60% or the value of IC50 was more than 200 nM.).
`Cc1nc(N[C@H]2CC[C@@H](NC(=O)c3ccc(OC(F)(F)F)cc3)CC2)cc(N(C)C)n1` [compound 248] was tested, and the class was 3 (Class 3: The value of percent of control at 10^−7 M was more than 60% or the value of IC50 was more than 200 nM.).
With `Cc1nc(N[C@H]2CC[C@@H](NC(=O)c3ccc(F)cc3C(F)(F)F)CC2)cc(N(C)C)n1` [compound 249] the class was 3 (Class 3: The value of percent of control at 10^−7 M was more than 60% or the value of IC50 was more than 200 nM.).
`Cc1nc(N[C@H]2CC[C@@H](NC(=O)Cc3ccc(F)cc3)CC2)cc(N(C)C)n1` [compound 250] was tested, and the class was 3 (Class 3: The value of percent of control at 10^−7 M was more than 60% or the value of IC50 was more than 200 nM.).
With `CCCCCCCOc1ccc(C(=O)N[C@H]2CC[C@@H](Nc3cc(N(C)C)nc(C)n3)CC2)cc1` [compound 251] the class was 3 (Class 3: The value of percent of control at 10^−7 M was more than 60% or the value of IC50 was more than 200 nM.).
For `CCCCCc1ccc(C(=O)N[C@H]2CC[C@@H](Nc3cc(N(C)C)nc(C)n3)CC2)cc1` [compound 252], the class was 3 (Class 3: The value of percent of control at 10^−7 M was more than 60% or the value of IC50 was more than 200 nM.).
For `Cc1nc(N[C@H]2CC[C@@H](NC(=O)C3CCCC3)CC2)cc(N(C)C)n1` [compound 253, N-(cis-4-{[6-(dimethylamino)-2-methylpyrimidin-4-yl]amino}cyclohexyl)cyclopentanecarboxamide], the class was 3 (Class 3: The value of percent of control at 10^−7 M was more than 60% or the value of IC50 was more than 200 nM.).
`CCCCCCCCCc1ccc(C(=O)N[C@H]2CC[C@@H](Nc3cc(N(C)C)nc(C)n3)CC2)cc1` [compound 254] was tested, and the class was 3 (Class 3: The value of percent of control at 10^−7 M was more than 60% or the value of IC50 was more than 200 nM.).
In the case of `Cc1nc(N[C@H]2CC[C@@H](NC(=O)COc3ccc(C(C)(C)C)cc3)CC2)cc(N(C)C)n1` [compound 255], the class is reported as 3 (Class 3: The value of percent of control at 10^−7 M was more than 60% or the value of IC50 was more than 200 nM.).
With `Cc1nc(N[C@H]2CC[C@@H](NC(=O)c3ccc(F)c(Cl)c3)CC2)cc(N(C)C)n1` [compound 256, 3-chloro-N-(cis-4-{[6-(dimethylamino)-2-methylpyrimidin-4-yl]amino}cyclohexyl)-4-fluorobenzamide] the class was 1 (Class 1: The value of percent of control at 10^−7 M was less than 40% or the value of IC50 was less than 50 nM.).
For `Cc1nc(N[C@H]2CC[C@@H](NC(=O)CC3CCCC3)CC2)cc(N(C)C)n1` [compound 257], the class was 3 (Class 3: The value of percent of control at 10^−7 M was more than 60% or the value of IC50 was more than 200 nM.).
With `Cc1nc(N[C@H]2CC[C@@H](NC(=O)CCc3ccccc3)CC2)cc(N(C)C)n1` [compound 258] the class was 3 (Class 3: The value of percent of control at 10^−7 M was more than 60% or the value of IC50 was more than 200 nM.).
For `Cc1nc(N[C@H]2CC[C@@H](NC(=O)c3ccc(C#N)cc3)CC2)cc(N(C)C)n1` [compound 259], the class was 3 (Class 3: The value of percent of control at 10^−7 M was more than 60% or the value of IC50 was more than 200 nM.).
`Cc1nc(NC2CCC(NC(=O)C(Cc3ccccc3)NS(=O)(=O)c3cccc4ccccc34)CC2)cc(N(C)C)n1` (stereo not drawn) [compound 260] was tested, and the class was 3 (Class 3: The value of percent of control at 10^−7 M was more than 60% or the value of IC50 was more than 200 nM.).
For `Cc1nc(N[C@H]2CC[C@@H](NC(=O)c3ccc(SC(F)(F)F)cc3)CC2)cc(N(C)C)n1` [compound 261], the class was 3 (Class 3: The value of percent of control at 10^−7 M was more than 60% or the value of IC50 was more than 200 nM.).
With `Cc1nc(N[C@H]2CC[C@@H](NC(=O)/C=C/c3cccc(C(F)(F)F)c3)CC2)cc(N(C)C)n1` [compound 262] the class was 3 (Class 3: The value of percent of control at 10^−7 M was more than 60% or the value of IC50 was more than 200 nM.).
In the case of `Cc1nc(N[C@H]2CC[C@@H](NC(=O)/C=C/c3ccc([N+](=O)[O-])cc3)CC2)cc(N(C)C)n1` [compound 263], the class is reported as 3 (Class 3: The value of percent of control at 10^−7 M was more than 60% or the value of IC50 was more than 200 nM.).
With `Cc1nc(N[C@H]2CC[C@@H](NC(=O)Cc3ccccc3Br)CC2)cc(N(C)C)n1` [compound 264] the class was 3 (Class 3: The value of percent of control at 10^−7 M was more than 60% or the value of IC50 was more than 200 nM.).
For `Cc1nc(N[C@H]2CC[C@@H](NC(=O)/C=C/c3ccccc3Cl)CC2)cc(N(C)C)n1` [compound 265], the class was 3 (Class 3: The value of percent of control at 10^−7 M was more than 60% or the value of IC50 was more than 200 nM.).
For `Cc1nc(N[C@H]2CC[C@@H](NC(=O)c3cccnc3Sc3ccccc3)CC2)cc(N(C)C)n1` [compound 266], the class was 3 (Class 3: The value of percent of control at 10^−7 M was more than 60% or the value of IC50 was more than 200 nM.).
In the case of `Cc1nc(N[C@H]2CC[C@@H](NC(=O)c3cc(C(C)(C)C)nn3Cc3ccccc3)CC2)cc(N(C)C)n1` [compound 267], the class is reported as 3 (Class 3: The value of percent of control at 10^−7 M was more than 60% or the value of IC50 was more than 200 nM.).
